Measurements from PMC6723908, “OCTN2-Mediated Acetyl-L-Carnitine Transport in Human Pulmonary Epithelial Cells In Vitro” (Pharmaceutics, 2019).

Target: T1, OCTN2 (Homo sapiens, UniProt O76082)
T1 construct: gene SLC22A5
T1 sequence (O76082 1-557): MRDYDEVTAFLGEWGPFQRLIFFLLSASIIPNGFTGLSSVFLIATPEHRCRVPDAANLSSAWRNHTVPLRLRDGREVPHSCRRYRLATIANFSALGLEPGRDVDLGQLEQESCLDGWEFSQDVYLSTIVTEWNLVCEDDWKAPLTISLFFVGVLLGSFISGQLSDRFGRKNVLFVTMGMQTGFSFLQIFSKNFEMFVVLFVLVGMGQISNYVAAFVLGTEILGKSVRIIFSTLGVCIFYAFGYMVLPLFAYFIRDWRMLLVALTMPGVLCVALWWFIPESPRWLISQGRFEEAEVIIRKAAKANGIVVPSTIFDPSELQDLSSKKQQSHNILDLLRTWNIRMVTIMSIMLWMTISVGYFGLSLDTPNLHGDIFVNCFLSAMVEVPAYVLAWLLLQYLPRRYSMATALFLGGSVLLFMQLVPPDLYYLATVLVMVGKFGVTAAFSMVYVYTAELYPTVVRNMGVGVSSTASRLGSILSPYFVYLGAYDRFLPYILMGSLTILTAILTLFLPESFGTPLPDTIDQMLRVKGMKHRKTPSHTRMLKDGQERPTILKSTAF
Assay: inhibition of [3H]-acetyl-L-carnitine uptake in ATI-like and A549 cells at […] (uptake reduced to […] in A549)
Type: cell-based
Conditions: read-out: % of control uptake at 500 μM

## C[N+](C)(C)C[C@@H](O)CC(=O)[O-] [D-carnitine]
  remaining activity at 500 µM: 25.8 ± 1.3%
